Measured values as given in patent US7799343B2, “Safer control of broadleaf weeds in turf with granular formulations of ALS inhibiting herbicides” (priority 2006, dated 2010).

Tests used:
Assay type in all cases: in vivo
tall fescue = test: Turf tolerance field study, tall fescue, Indiana 2004; settings: 14 Days After Treatment, g ai/Ha: penoxsulam 35, imazaquin 104, bispyribac-sodium 75, trifloxysulfuron-sodium 9.2, metsulfuron-methyl 10.4; for Cover: 0 = bare ground, 100 = thick solid stand; for Color: 0 = brown to dead turf, 10 = lush green; for Injury: 0 = no visible injury, 10 = dead turf
Procedure: (§1) Turf tolerance studies were conducted in monoculture stands of perennial ryegrass and tall fescue. Replicated trials, containing a minimum of three replications and having individual plots ranging in size from 25 to 50 ft. sq (2.3 to 4.6 square meters), were initiated in the late spring when turf was actively growing. […] Natural rainfall and supplemental irrigation, fertilizer, fungicides and insecticides were used to maintain healthy turf throughout the study period. Turf tolerance evaluations were made weekly for 8 weeks after application. Evaluations compared treated and untreated plot areas and consisted of one or all of the following evaluations: 1) visual estimate of turf injury made on a 0 to 10 scale with 0 indicating no visible injury symptoms, 10 being dead turf and 3 or less being commercially acceptable; 2) visual estimate of turf color made on a 0 to 10 scale with 0 being brown to dead turf, 10 being a lush green turf of highest quality and 6.5 being commercially acceptable; 3) visual estimate of turf density made on a 0 to 100 scale with 0 being bare ground, 100 being a thick solid stand of highest quality and 90 percent density being commercially acceptable; 4) visual estimate of turf quality made on a 0 to 10 scale with 0 being brown to dead turf, 10 being a lush green turf of highest quality and 6.5 being commercially acceptable.

perennial ryegrass [1] = test: Turf tolerance field study, perennial ryegrass, Indiana 2004; settings: 21 Days After Treatment, g ai/Ha: penoxsulam 35, imazaquin 104, bispyribac-sodium 75, trifloxysulfuron-sodium 9.2, metsulfuron-methyl 10.4; for Cover: 0 = bare ground, 100 = thick solid stand; for Color: 0 = brown to dead turf, 10 = lush green; for Injury: 0 = no visible injury, 10 = dead turf
Procedure: as §1

perennial ryegrass [2] = test: Perennial ryegrass turf quality field study, Pennsylvania 2004; settings: perennial ryegrass, 0 = brown to dead turf, 10 = highest quality, g ai/Ha: penoxsulam 35, imazaquin 104, bispyribac-sodium 75, trifloxysulfuron-sodium 9.2, metsulfuron-methyl 10.4; for Turf Quality 4 DAA: 4 Days After Application; for Turf Quality 16 DAA: 16 Days After Application; for Turf Quality 36 DAA: 36 Days After Application
Procedure: as §1

[3] = test system: dandelion, Taraxacum officinale (TAROF); test: Postemergent weed control field study, Pennsylvania 2004, TAROF; settings: Granule formulation, g ai/Ha: penoxsulam 35, imazaquin 104, bispyribac-sodium 75, trifloxysulfuron-sodium 9.2, metsulfuron-methyl 10.4; for Percent Weed Control TAROF 29DAA: 29 Days After Application; for Percent Weed Control TAROF 56DAA: 56 Days After Application
Description: (§2) The ALS inhibiting herbicides are useful in controlling broadleaf weeds and sedges in turfgrass. They are particularly effective against most important weeds in this application, viz., white clover, Trifolium repens L. (TRFRE); buckhorn plantain, Plantago lanceolata L. (PLALA); dandelion, Taraxacum officinale (TAROF); broadleaf plantain, Plantago major L. (PLAMA); ground ivy, Glechoma hederacea L. (GLEHE); common lespedeza, Lespedeza striata (LESST); pennywort (dollarweed), Hydrocotyle spp (HYDSS); Virginia buttonweed, Diodia virginiana L. (DIQVI) English daisy, Bellis perennis L. (BELPE); annual bluegrass, Poa annua (POANN); and yellow nutsedge, Cypres esculentus L. (CYPES).
(§3) Field studies were conducted in established turfgrass sites containing a natural population of target broadleaf weeds. Replicated trials, containing a minimum of three replications and having individual plots ranging in size from 25 to 50 ft. sq (2.3 to 4.6 square meters), were initiated in the late spring when turf and weeds were actively growing. Granule treatments were uniformly applied to individual plots using a common hand-shaker method. Applications were made in the early morning when dew was present. Natural rainfall and supplemental irrigation were used to maintain healthy turf and active weed growth throughout the study period. Control of each weed species in the study site was made at approximately 2, 4 and 8 weeks after treatment. Control was determined visually by comparing treated and untreated weeds and scored on a 0 to 100 percent scale where 0 corresponds to no control and 100 corresponds to complete kill.

[4] = test system: white clover, Trifolium repens L. (TRFRE); test: Postemergent weed control field study, Pennsylvania 2004, TRFRE; settings: g ai/Ha: penoxsulam 35, imazaquin 104, bispyribac-sodium 75, trifloxysulfuron-sodium 9.2, metsulfuron-methyl 10.4; for Percent Weed Control TRFRE 29DAA: 29 Days After Application; for Percent Weed Control TRFRE 56DAA: 56 Days After Application
Description: as §2
as §3, with “Granule treatments were uniformly applied to individual plots using a common hand-shaker method.” left out

[5] = test system: buckhorn plantain, Plantago lanceolata L. (PLALA); test: Postemergent weed control field study, Pennsylvania 2004, PLALA; settings: g ai/Ha: penoxsulam 35, imazaquin 104, bispyribac-sodium 75, trifloxysulfuron-sodium 9.2, metsulfuron-methyl 10.4; for Percent Weed Control PLALA 29DAA: 29 Days After Application; for Percent Weed Control PLALA 56DAA: 56 Days After Application
Description: as §2
as §3, with “Granule treatments were uniformly applied to individual plots using a common hand-shaker method.” left out

[6] = test system: annual bluegrass, Poa annua (POANN); test: Postemergent weed control field study, Pennsylvania 2004, POANN; settings: g ai/Ha: penoxsulam 35, imazaquin 104, bispyribac-sodium 75, trifloxysulfuron-sodium 9.2, metsulfuron-methyl 10.4; for Percent Weed Control POANN 29DAA: 29 Days After Application; for Percent Weed Control POANN 56DAA: 56 Days After Application
Description: as §2, §3

[7] = test system: dandelion, Taraxacum officinale (TAROF); test: Postemergent weed control field study, Pennsylvania 2004, TAROF; settings: Liquid formulation, g ai/Ha: penoxsulam 35, imazaquin 104, bispyribac-sodium 75, trifloxysulfuron-sodium 9.2, metsulfuron-methyl 10.4; for Percent Weed Control TAROF 29DAA: 29 Days After Application; for Percent Weed Control TAROF 56DAA: 56 Days After Application

| Structure (SMILES) | Cover (tall fescue; Granule formulation) | Color (tall fescue; Granule formulation) | Injury (tall fescue; Granule formulation) | Cover (tall fescue; Liquid formulation) | Color (tall fescue; Liquid formulation) | Injury (tall fescue; Liquid formulation) | Cover (perennial ryegrass [1]; Granule formulation) | Color (perennial ryegrass [1]; Granule formulation) | Injury (perennial ryegrass [1]; Granule formulation) | Cover (perennial ryegrass [1]; Liquid formulation) | Color (perennial ryegrass [1]; Liquid formulation) | Injury (perennial ryegrass [1]; Liquid formulation) | Turf Quality 4 DAA (perennial ryegrass [2]; Granule formulation) | Turf Quality 16 DAA (perennial ryegrass [2]; Granule formulation) | Turf Quality 36 DAA (perennial ryegrass [2]; Granule formulation) | Turf Quality 4 DAA (perennial ryegrass [2]; Liquid formulation) | Turf Quality 16 DAA (perennial ryegrass [2]; Liquid formulation) | Turf Quality 36 DAA (perennial ryegrass [2]; Liquid formulation) | Percent Weed Control TAROF 29DAA [3] [%] | Percent Weed Control TAROF 56DAA [3] [%] | further results |
| --- | --- | --- | --- | --- | --- | --- | --- | --- | --- | --- | --- | --- | --- | --- | --- | --- | --- | --- | --- | --- | --- |
| COc1cc(OC)nc(Oc2cccc(Oc3nc(OC)cc(OC)n3)c2C(=O)O)n1 [Bispyribac-sodium, bispyribac-sodium] | 100.0 0-100 Scale | 9.0 0-10 Scale | 0.0 0-10 Scale | 97.5 0-100 Scale | 8.8 0-10 Scale | 2.0 0-10 Scale | 100.0 0-100 Scale | 8.5 0-10 Scale | 1.0 0-10 Scale | 85.0 0-100 Scale | 6.5 0-10 Scale | 4.5 0-10 Scale | 8.7 0 to 10 scale | 7.3 0 to 10 scale | 10.0 0 to 10 scale | 8.0 0 to 10 scale | 5.7 0 to 10 scale | 10.0 0 to 10 scale | 45.0 | 23.3 | Percent Weed Control TRFRE 29DAA ([4]; Granule formulation): 36.1%; Percent Weed Control TRFRE 29DAA ([4]; Liquid formulation): 88.9%; Percent Weed Control TRFRE 56DAA ([4]; Liquid formulation): 55.6%; Percent Weed Control PLALA 29DAA ([5]; Granule formulation): 27.8%; Percent Weed Control PLALA 56DAA ([5]; Granule formulation): 27.8%; Percent Weed Control PLALA 29DAA ([5]; Liquid formulation): 75.6%; Percent Weed Control PLALA 56DAA ([5]; Liquid formulation): 57.8%; Percent Weed Control POANN 29DAA ([6]; Granule formulation): 40.0%; Percent Weed Control POANN 56DAA ([6]; Granule formulation): 28.9%; Percent Weed Control POANN 29DAA ([6]; Liquid formulation): 28.3%; Percent Weed Control POANN 56DAA ([6]; Liquid formulation): 23.3%; Percent Weed Control TAROF 29DAA [7]: 95.7%; Percent Weed Control TAROF 56DAA [7]: 57.1% |
| CC(C)C1(C)N=C(c2nc3ccccc3cc2C(=O)O)NC1=O (stereo not shown) [Imazaquin, imazaquin] | 100.0 0-100 Scale | 9.0 0-10 Scale | 0.5 0-10 Scale | 70.0 0-100 Scale | 5.3 0-10 Scale | 5.3 0-10 Scale | 98.8 0-100 Scale | 8.8 0-10 Scale | 1.8 0-10 Scale | 97.5 0-100 Scale | 8.3 0-10 Scale | 3.3 0-10 Scale | 10.0 0 to 10 scale | 3.0 0 to 10 scale | 3.3 0 to 10 scale | 7.7 0 to 10 scale | 3.3 0 to 10 scale | 7.7 0 to 10 scale | 13.9 | 17.8 | Percent Weed Control TRFRE 29DAA ([4]; Granule formulation): 0.0%; Percent Weed Control TRFRE 56DAA ([4]; Granule formulation): 23.3%; Percent Weed Control TRFRE 29DAA ([4]; Liquid formulation): 22.2%; Percent Weed Control TRFRE 56DAA ([4]; Liquid formulation): 11.1%; Percent Weed Control PLALA 29DAA ([5]; Granule formulation): 22.2%; Percent Weed Control PLALA 56DAA ([5]; Granule formulation): 41.1%; Percent Weed Control PLALA 29DAA ([5]; Liquid formulation): 16.7%; Percent Weed Control PLALA 56DAA ([5]; Liquid formulation): 8.3%; Percent Weed Control POANN 29DAA ([6]; Granule formulation): 31.4%; Percent Weed Control POANN 56DAA ([6]; Granule formulation): 18.1%; Percent Weed Control POANN 29DAA ([6]; Liquid formulation): 8.8%; Percent Weed Control POANN 56DAA ([6]; Liquid formulation): 26.2%; Percent Weed Control TAROF 29DAA [7]: 58.9%; Percent Weed Control TAROF 56DAA [7]: 11.1% |
